Experimental data reported in patent US10509046B2, “Detection of indazole synthetic cannabinoids” (Randox Laboratories Limited, priority 2014, dated 2019).
Counter-ions that a name gives are not always drawn.

System: AB-PINACA antibody (raised against immunogen 2 of Example 6)
Assay: AB-PINACA ELISA, final validated kit with Tracer-2 (Example 10), specificity
Assay type: binding
Conditions: AB-PINACA N-Pentanoic acid = 100
Procedure: A microtitre plates was precoated with AB-PINACA antibody (raised against immunogen 2 of Example 6). Pinaca derivative (antigen), if present in the sample competes with the horseradish peroxidase labelled AB-PINACA (enzyme labelled antigen, herein Tracer-2 of Example 8) for a limited number of antibody sites on the microtitre plate. After incubation at room temperature to allow a competition reaction to take place, the microtitre plate was washed to remove excess reagents. The enzyme substrate ([…]) was added. After an incubation period to allow maximum colour development, the colour reaction was stopped by the addition of acid. This produces a colour change from blue to yellow, and the absorbances are read at 450 nm. A standard curve was then constructed to determine the Pinaca derivative's concentration in the sample.
All reagents were left to reach room temperature (+15 to +25° C.) prior to use. In order to minimise edge effects microtitre plate was sealed with an adhesive plate sealer.
The assay was performed in duplicate. The following layout was used for a test plate where each box represents 2 wells.
• a) The following was pipetted into the appropriate wells of the microtitre plate:
• b) The microtitre plate was gently tapped plate from side to side for a few seconds. • c) The microtitre plate was covered with a plate sealer before incubating for 30 minutes at room temperature (+15 to +25° C.) in the dark. • d) The plate was inverted and the liquid was tapped out. • e) The plate was washed 6 times with diluted wash buffer (ensuring all wells were filled), over a 10-15 minute period. After the final wash the liquid was discarded and the plate was tapped onto lint free tissue paper until completely dry. • f) Immediately after washing, 125 μL of the one shot substrate II solution was pipetted into each well using a multichannel pipette. The microtitre plate was gently tapped from side to side and incubated for (20±2 minutes) at room temperature (+15 to +25° C.) in the dark. • g) The colour reaction was stopped by the addition of 100 μL of stop solution per well. A colour change from blue to yellow should be evident. • h) The optical density was measured at 450 nm within 10 minutes of stopping the colour reaction. The use of a 630 nm filter is recommended as the reference wavelength, if available. Standard Curve and Interpretation of Results • a) The mean absorbance of the standards, controls and samples were calculated. • b) The absorbances of standards against log10 (standard concentration) were plotted. • c) The control and sample concentrations were read from the standard curve. • d) To obtain concentrations for urine samples in ng/mL, the results were multiplied by 3 to take into account the dilution factor. • e) To obtain concentrations for whole blood samples in ng/mL, the results were multiplied by 4 to take into account the dilution factor. • f) It is recommended that a 4 parameter curve fit method is used when generating the standard curve. Limits of Detection

SMILES | % Cross-Reactivity
CC(C)C(NC(=O)c1nn(CCCC(O)CF)c2ccccc12)C(N)=O (stereo not drawn) | 24.1%
CC(C)(C)C(NC(=O)c1nn(CCCCCO)c2ccccc12)C(N)=O (stereo not drawn) | 15.2%
CCCCCn1nc(C(=O)NC23CC4CC(CC(O)(C4)C2)C3)c2ccccc21 [3-OH AKB-48] | <1%
CCCCCn1cc(C(=O)NC23CC4CC(CC(O)(C4)C2)C3)c2ccccc21 [3-OH SDB-001] | <1%
CC(O)CCCn1nc(C(=O)NC(C(N)=O)C(C)C)c2ccccc21 (stereo not drawn) [4-Hydroxypentyl AB-PINACA, 1-(4-hydroxypentyl) AB-Pinaca] | 85.2%
CC(C)(C)C(NC(=O)c1nn(CCCCCF)c2ccccc12)C(N)=O (stereo not drawn) [5-Fluoro ADB-PINACA] | 9.8%
CC(C)(C)C(NC(=O)c1cn(CCCCCF)c2ccccc12)C(N)=O (stereo not drawn) [5-Fluoro ADBICA] | 4.7%
O=C(c1cn(CCCCCO)c2ccccc12)C12CC3CC(CC(C3)C1)C2 [AB-001 N-Pentanol] | <1%
CC(C)[C@H](NC(=O)c1nn(CC2CCCCC2)c2ccccc12)C(N)=O [AB-CHMINACA] | 3.8%
CC(C)C(NC(=O)c1nn(Cc2ccc(F)cc2)c2ccccc12)C(=O)O (stereo not drawn) [AB-FUBINACA carboxylic acid] | 4.5%
CCCCCn1nc(C(=O)NC(C(=O)O)C(C)C)c2ccccc21 (stereo not drawn) [AB-PINACA carboxylic acid] | <1%
CC(C)(C)C(NC(=O)c1nn(CCCCC(=O)O)c2ccccc12)C(N)=O (stereo not drawn) [ADB-PINACA pentanoic acid metabolite] | 32.8%
CCCCCn1cc(C(=O)NC(C(N)=O)C(C)(C)C)c2ccccc21 (stereo not drawn) [ADBICA] | 0.7%
CC(O)CCCn1nc(C(=O)NC23CC4CC(CC(C4)C2)C3)c2ccccc21 (stereo not drawn) [AKB48 N-(4-hydroxypentyl) metabolite] | <1%
O=C(NC12CC3CC(CC(C3)C1)C2)c1nn(CCCCCO)c2ccccc12 [AKB48 N-(5-hydroxypentyl) metabolite] | <1%
O=C(O)CCCCn1nc(C(=O)NC23CC4CC(CC(C4)C2)C3)c2ccccc21 [AKB48 N-Pentanoic acid metabolite] | <1%
CCCCCn1nc(C(=O)Nc2cccc3ccccc23)c2ccccc21 [MN-18] | <1%
COc1cccc2c(C(=O)N[C@@H]3C(C)(C)[C@@H]4CC[C@@]3(C)C4)cn(CCN3CCOCC3)c12 [MN-25] | <1%
O=C(Oc1cccc2cccnc12)c1cn(CCCCCO)c2ccccc12 [PB-22 N-(5-hydroxypentyl) metabolite] | <1%
O=C(O)CCCCn1cc(C(=O)Oc2cccc3cccnc23)c2ccccc21 [PB-22 N-Pentanoic acid] | <1%

Same assay, conditions: negative response

SMILES | Concentration of compounds that elicit a negative response at the indicated concentration
O=C(O)c1cn(CCCCCF)c2ccccc12 [5-fluoro PB-22 3-carboxyindole] | 100 ng/mL
O=C(Oc1cccc2cccnc12)c1cn(CCCCCF)c2ccccc12 [5-fluoro PB-22] | 100 ng/mL
O=C(O)CCCCn1cc(C(=O)C23CC4CC(CC(C4)C2)C3)c2ccccc21 [AB001 N-Pentanoic Acid] | 100 ng/mL
O=C(c1ccccc1I)c1cn(CCCCCF)c2ccccc12 [AM-694] | 100 ng/mL
O=C(c1cccc2ccccc12)c1cn(CCCCCF)c2cc(O)ccc12 [AM-2201 6-Hydroxyindole] | 100 ng/mL
O=C(c1cccc2ccccc12)c1cn(CCCCCF)c2ccccc12 [AM-2201] | 100 ng/mL
N#CCCCCn1cc(C(=O)c2cccc3ccccc23)c2ccccc21 [AM-2232] | 100 ng/mL
O=C(O)c1cn(CC2CCCCC2)c2ccccc12 [BB-22 3-Carboxyindole metabolite] | 100 ng/mL
O=C(Oc1cccc2cccnc12)c1cn(CC2CCCCC2)c2ccccc12 [BB-22] | 100 ng/mL
CC1(C)C(C(=O)c2cn(CC3CCOCC3)c3ccccc23)C1(C)C [Hapten A-834735] | 100 ng/mL
COc1ccccc1CC(=O)c1cn(CCCC(C)O)c2ccccc12 (stereo not drawn) [JWH 250 N-(4-hydroxypentyl) metabolite] | 100 ng/mL
CCCCCn1c(C)c(C(=O)c2cccc3ccccc23)c2ccccc21 [JWH-007] | 100 ng/mL
CCCn1c(C)c(C(=O)c2cccc3ccccc23)c2ccccc21 [JWH-015] | 100 ng/mL
CCCCCn1cc(C(=O)c2cccc3ccccc23)c2c(O)cccc21 [JWH-018 4-Hydroxyindole] | 100 ng/mL
CCCCCn1cc(C(=O)c2cccc3ccccc23)c2cc(O)ccc21 [JWH-018 5-Hydroxyindole] | 100 ng/mL
CCCCCn1cc(C(=O)c2cccc3ccccc23)c2ccc(O)cc21 [JWH-018 6-Hydroxyindole] | 100 ng/mL
O=C(c1cccc2ccccc12)c1cn(CCCCCO)c2ccccc12 [JWH-018 N-(5-Hydroxypentyl)] | 100 ng/mL
O=C(O)CCCCn1cc(C(=O)c2cccc3ccccc23)c2ccccc21 [JWH-018 N-Pentanoic acid] | 100 ng/mL
CCCCCn1cc(C(=O)c2cccc3ccccc23)c2ccccc21 [JWH-018] | 100 ng/mL

SMILES | Concentration of compounds that elicit a negative response at the indicated concentration
CCCCCCn1cc(C(=O)c2cccc3ccccc23)c2ccccc21 [JWH-019] | 100 ng/mL
CCCCn1cc(C(=O)c2cccc3ccccc23)c2c(O)cccc21 [JWH-073 4-Hydroxyindole] | 100 ng/mL
CCCCn1cc(C(=O)c2cccc3ccccc23)c2cc(O)ccc21 [JWH-073 5-Hydroxyindole] | 100 ng/mL
O=C(O)CCCn1cc(C(=O)c2cccc3ccccc23)c2ccccc21 [JWH-073 N-Butanoic acid] | 100 ng/mL
O=C(c1cccc2ccccc12)c1cn(CCCCO)c2ccccc12 [JWH-073 N-Butanol] | 100 ng/mL
CCCCn1cc(C(=O)c2cccc3ccccc23)c2ccccc21 [JWH-073] | 100 ng/mL
CCCCCn1cc(C(=O)c2ccc(OC)c3ccccc23)c2ccccc21 [JWH-081] | 100 ng/mL
O=C(c1cccc2ccccc12)c1cn(CCN2CCOCC2)c2ccccc12 [JWH-200] | 100 ng/mL
CCCCCn1cc(C(=O)Cc2ccccc2Cl)c2ccccc21 [JWH-203] | 100 ng/mL
CCCCCn1cc(C(=O)c2ccc(CC)c3ccccc23)c2ccccc21 [JWH-210] | 100 ng/mL
COc1ccccc1CC(=O)c1cn(CCCCCC(=O)O)c2ccccc12 [JWH-250 N-(5-Carboxypentyl)] | 100 ng/mL
COc1ccccc1CC(=O)c1cn(CCCCCO)c2ccccc12 [JWH-250 N-(5-Hydroxypentyl)] | 100 ng/mL
CCCCCn1cc(C(=O)c2ccc(Cl)c3ccccc23)c2ccccc21 [JWH-398] | 100 ng/mL
CN(C)C(=N)N=C(N)N [Metformin HCl] | 10000 ng/mL
CCCCCn1cc(C(=O)Nc2cccc3ccccc23)c2ccccc21 [NNEI] | 100 ng/mL
CCCCCn1cc(C(=O)O)c2ccccc21 [PB-22 3-Carboxyindole metabolite] | 100 ng/mL
CCCCCn1cc(C(=O)Oc2cccc3cccnc23)c2ccccc21 [PB-22] | 100 ng/mL
CC(C)NCC(O)COc1cccc2ccccc12 (stereo not drawn) [Propranolol HCL] | 10000 ng/mL
